Patent publication US5597922A, “Glycine receptor antagonist pharmacophore” (priority 1994, dated 1997)
Where two headings read alike, the source gives them in different places.

Experiments:
[1] = in words; cited from earlier work
glycine/NMDA receptor = molecular target: T1, glycine/NMDA receptor (Rattus norvegicus, UniProt P35439); assay: inhibition of 1 μM glycine-stimulated [3H]-MK801 binding in rat brain membrane homogenates (glycine/NMDA receptor antagonist activity); conditions: for potency relative to DCK (% of DCK): relative to 5,7-dichlorokynurenic acid (DCK); for activity as antagonist for the glycine/NMDA receptor (in words): in vitro binding assay; for Ki: calculated from IC50 by Cheng and Prusoff equation
T1 construct: rat brain membrane homogenates which are enriched in NMDA receptors; tissue Pel-Freez, Rogers, Ark; (frozen rat brains); host or cells: rat brain membrane homogenates
Method: This assay takes advantage of the fact that the binding of [^3 H]-MK801 to the PCP receptor inside the pore of the NMDA channel is dependent on the presence of both glutamate and glycine. In the absence of glycine but in the presence of glutamate, [^3 H]-MK801 cannot bind effectively to the PCP receptor, because the NMDA channel remains closed and access of [^3 H]-MK801 to the PCP receptor inside the closed channel pore is severely restricted.
The assay is conducted using rat brain membrane homogenates which are enriched in NMDA receptors. The membranes are prepared as follows. Frozen rat brains (obtained from Pel-Freez, Rogers, Ark.) are homogenized in 15 volumes (w/v) of ice cold 0.32M sucrose. The homogenate is spun at 1,000×g for ten minutes. The supernatant is collected and spun for 20 minutes at 44,000×g. The pellet is suspended in 15 volumes of water (relative to original brain weight). The homogenate is again spun at 44,000×g for twenty minutes. The pellet is resuspended in 5 volumes of water and the suspension is freeze-thawed 2 times. After the final thaw cycle, the suspension is brought to 15 volumes with water and spun at 44,000×g for twenty minutes. The pellet is resuspended in 5 volumes of ice-cold […] HEPES, and is titrated to pH 7.4 with KOH containing 0.04% Triton X-100. Membranes are incubated with the Triton/HEPES buffer at 37° C. for 15 minutes. The volume is then brought to 15 with ice-cold 10 mM HEPES, pH 7.4, and spun/washed three times with spins of 44,000×g between washes. The final pellet is suspended in three volumes of 50 mM HEPES, pH 7.4 and the protein concentration is determined with a standard dye-binding protein assay (Bio-Rad, Richmond, Calif.). The suspension is stored at -80° C. until used. Only HPLC grade water is used for all buffers and suspensions/washings. The extensive washings are necessary to remove as much endogenous glycine from the membrane preparation as possible.
Nonspecific binding is defined as the […] presence of PCP (final concentration: 100 μM). To determine the effect of 1 μM glycine on the binding of [^3 H]-MK801, bound radioactivity in the presence of 10 μM glutamate alone (final concentration) is subtracted from the bound radioactivity in the presence of both 10 μM glutamate and 1 μM glycine (final concentration). A 500 nM concentration (final) of 5,7-dichlorokynurenic (DCK) acid is added to all assay tubes. This concentration of the glycine antagonist DCK "buffers" most of the residual endogenous glycine that is not removed by the extensive washing steps that are carried out during the membrane preparation procedure.
The assays are incubated for 120 minutes at room temperature after which time the membrane-bound radioactivity is isolated from the free radioactivity by vacuum filtration through Whatman glass fiber filters that had been pretreated with 0.3% polyethyleneimine. Filtration is accomplished using a Brandel 48 well cell harvester. Filtered membranes are washed three times with 3 mL each of ice cold buffer. Filters are transferred to scintillation vials and 5 mL of scintillation cocktail is added. The vials are shaken overnight and the radioactivity is counted by liquid scintillation spectroscopy. The assays are done in triplicate and all experiments are conducted at least three times.

[2] = tested on: glycine binding site of the NMDA receptor; conditions: Fletcher and Lodge (1988); cited from earlier work
PCP receptor = conditions: Wong, E. H. F., et al. (1986); cited from earlier work
[3] = 1 μM glycine-stimulated [3H]-MK801 binding, rat brain membranes, read-out: IC50
[4] = 1 μM glycine-stimulated [3H]-MK801 binding, rat brain membranes, unit μm [sic], read-out: IC50

For O=C(O)c1cc(O)c2ccc(Cl)cc2n1 [7-Cl-kynurenic acid], the blood/brain barrier penetration [1] is given as “cannot penetrate the blood/brain barrier”.
For Oc1nc2ccccc2c(O)c1O [Compound 11, 2,3,4-Trihydroxyquinoline], the IC50 (glycine/NMDA receptor; [3]) was 60 µM and the “potency relative to DCK (% of DCK)” value (glycine/NMDA receptor) was 4%.
With O=C1Nc2cc(Cl)cc(Cl)c2C1=O [Compound 13d, 4,6-Dichloroisatin] the “activity as antagonist for the glycine/NMDA receptor (in words)” value (glycine/NMDA receptor) was “not to be active”.
In the case of COc1cc2ccccc2[nH]c1=O [Compound 5, 3-Methoxy-2-quinolone], the “activity as antagonist for the glycine/NMDA receptor (in words)” value (glycine/NMDA receptor) is reported as “inactive”.
For O=C(O)c1cc(=O)c2ccccc2o1 [Compound 19], the “activity as antagonist for the glycine/NMDA receptor (in words)” value (glycine/NMDA receptor) was “only partially active”.
In the case of O=C1C=CC(=O)Nc2ccccc2N1 [Compound 43, 1H-6H-1,6-Benzodiazocine-2,5-dione], the “activity as antagonist for the glycine/NMDA receptor (in words)” value (glycine/NMDA receptor) is reported as “inactive”.
For O=c1[nH]c2ccccc2c(=O)o1 [Compound 14a, Isatoic anhydride], the IC50 (glycine/NMDA receptor) was 231 µM and the “potency relative to DCK (% of DCK)” value (glycine/NMDA receptor) was 1.1%.
In the case of O=C(O)c1cc2ccccc2[nH]1 [indole-2-carboxylic acid], the blood/brain barrier penetration [1] is given as “cannot penetrate the blood/brain barrier”.
For O=c1[nH]c2cc(Cl)c([N+](=O)[O-])c(Cl)c2c(=O)o1 [Compound 14d, 5,7-Dichloro-6(8)-nitroisatoic anhydride], the “potency relative to DCK (% of DCK)” value (glycine/NMDA receptor) was 2.7%.
For NC1CCN(O)C1=O (stereo not shown) [HA-966], the “affinity for the glycine binding site (in words)” value [2] is given as “micromolar affinity”, the “type of activity at the glycine binding site (in words)” value [2] is given as “partial agonist” and the blood/brain barrier penetration [1] is given as “sufficiently penetrates the blood/brain barrier”.
Work on O=C1Nc2cc(Cl)c(Cl)cc2NC1[N+](=O)[O-] (stereo not shown) [Compound 33] yielded a Ki (glycine/NMDA receptor; unit μm [sic]) of 0.22 µM.
In the case of O=C1Nc2cc(Cl)c([N+](=O)[O-])c(Cl)c2C1=O [Compound 13e, 4,6-Dichloro-5(7)-nitroisatin], the IC50 (glycine/NMDA receptor; [4]) is reported as 96.5 µM and the “potency relative to DCK (% of DCK)” value (glycine/NMDA receptor) is reported as 3%.
For O=c1[nH]c2ccccc2[nH]c1=O [QX, 1,4-dihydroquinoxaline-2,3-dione, reference compound], the “potency relative to DCK (% of DCK)” value (glycine/NMDA receptor) was 2%.
With O=C1CNC(=O)c2ccccc2N1 [Compound 73a, 2,3,5-trihydro-1H,4H-1,4-Benzodiazepine-2,5-dione] the IC50 (glycine/NMDA receptor; [4]) was 300 µM and the “potency relative to DCK (% of DCK)” value (glycine/NMDA receptor) was 1.0%.
In the case of C[C@]12N[C@H](Cc3ccccc31)c1ccccc12 [MK-801], the Kd (PCP receptor) is given as roughly 0.003 µM.
With O=c1[nH]c2cc(Cl)c(Cl)cc2[nH]c1=NO [Compound 37, 6,7-Dichloro-3-(hydroxyimino)-1,4-dihydroquinoxalin-2-one] the Ki (glycine/NMDA receptor) was 0.3 µM.
For O=C1Nc2ccccc2C(=O)C1=O [Compound 12, Quinoline-2,3,4-trione], the IC50 (glycine/NMDA receptor; [3]) was 50 µM and the “potency relative to DCK (% of DCK)” value (glycine/NMDA receptor) was 5%.
For O=[N+]([O-])c1c(Br)c(Br)cc2nc(O)[nH]c12 [Example 50, 4-Nitro-5,6-dibromo-2-hydroxybenzimidazole], the “Potency relative to DCK (in words)” value (glycine/NMDA receptor; relative to DCK) was “inactive”.
In the case of O=c1[nH]c2ccccc2oc1=O [Compound 2, 4,1-Benzoxazine;2,3-dione], the IC50 (glycine/NMDA receptor; [4]) is reported as 167 µM and the “potency relative to DCK (% of DCK)” value (glycine/NMDA receptor) is reported as 1.5%.
In the case of O=C1Nc2ccccc2C1=O [Compound 13, Isatin], the “activity as antagonist for the glycine/NMDA receptor (in words)” value (glycine/NMDA receptor) is reported as “not to be active”.
